These results are taken from US20090076029A1 (Palatin Technologies, Inc., priority 2007, published 2009).

Each structure is given as a SMILES string. “And” between values parts separate entries of the source, which are not always exact repeats. Identical values can stand only once. Like-named read-outs stand apart in the source and are kept apart here.

The target of test [1] is T1, hMC5-R.
T1 construct: expressed in transfected cells; host or cells: HEK-293
As to the kind of experiment: Competitive inhibition assay using [I125]-NDP-α-MSH, hMC5-R membranes. Format: binding, human. Conditions: read-out: Ki (nM) (NDP-α-MSH) MC5-R. The method in brief:
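Membranes from HEK-293 cells expressing hMC3-R, hMC4-R or hMC5-R, or from mouse B-16 melanoma cells (MC1-R), with 0.2–0.4 nM [125I]-NDP-α-MSH in 50 mM HEPES pH 7.2 with Mg2+, Ca2+, K+. Test compound typically 1 μM; 90 min, room temperature; filtration, gamma counting. Percent inhibition vs specific binding (1 μM α-MSH), triplicate mean, negatives as 0%.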

For test [2], the system named is T2, hMC4-R.
T2 construct: expressed in transfected cells; host or cells: HEK-293
Kind of test: cAMP functional assay in HEK-293 cells expressing MC4-R (agonist, neutral antagonist/Schild). The format is cell-based, human. As to conditions: for intrinsic activity at MC4-R: NDP-α-MSH maximal stimulation = 1.0; for pA2 value at MC4-R: Schild plot vs NDP-α-MSH; for functional status at MC4-R: mostly at 1 μM. An outline of the steps:
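Cells in EBSS/HEPES pH 7.5 with 0.3 mM IBMX, exposed to compound (0.05-5000 nM, 1% DMSO) for 1 h at 37 °C; cAMP by EIA, EC50 by nonlinear regression. Antagonism: 30 min compound pre-incubation, then 1 nM NDP-α-MSH for 1 h; Schild analysis over 0.005-5000 nM agonist gives pA2.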

Test [3] has as its system T2, hMC4-R. Format: binding, human. As to conditions: for Inhibition at 1 μM (AgRP) MC4-R: 1 μM compound. The method in brief: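 Membranes from hMC4-R-expressing cells incubated 1 h at 37 °C with 0.2 nM [I^125]-AgRP (83-132) and increasing compound in 25 mM HEPES pH 7.5, 100 mM NaCl, 2 mM CaCl2, 2 mM MgCl2, 0.3 mM 1,10-phenanthroline, 0.5% BSA. Filtration, gamma counting; specific binding kept ≤10% of added counts.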

The target of test [4] is T2, hMC4-R. As to the kind of experiment: Competitive inhibition assay using [I125]-NDP-α-MSH, hMC4-R membranes. The format is binding, human.
The mark [5] stands for this setting: MC4-R membranes, Table 1, read-out: Ki (nM) I125-AgRP.
[6] abbreviates: MC4-R membranes, Table 1, read-out: Ki (nM) I125-NPD-α-MSH.
[7] abbreviates: read-out: Ki (nM) (NDP-α-MSH) MC4-R.

A word on the Ki: it is the dissociation constant of the complex between target and ligand, obtained from inhibition or displacement. The Inhibition is the percentage by which the read-out fell short of the control. Higher therefore signals a strong effect. For the molecule `CC(C)C[C@@H]1CN(C(=O)[C@H](N)Cc2ccc(Cl)cc2Cl)[C@@H](CCCNC(=N)N)CN1CCc1ccc2ccccc2c1` [Example 4, N-{3-[1-[2(R)-Amino-3-(2,4-dichloro-phenyl)-propionyl]-5(R)-isobutyl-4-(2-naphthalen-2-yl-ethyl)-piperazin-2(S)-yl]-propyl}-guanidine], the Ki in test [1] is 160 nM; in test [3] (setting [5]), 6 nM; in test [3] (read-out: Ki (nM) (AgRP) MC4-R), 6 nM; in test [4] (setting [6]) it was 5 nM; in test [4] (setting [7]) it was 5 nM. For the same molecule, the “functional status (pAg, Ag, Antag, Inactive)” value in test [2] (MC4-R, Table 1) was “Antag (“Antag” means antagonist)”. Moreover, in test [2], the “intrinsic activity at MC4-R” value was “no intrinsic activity”. Moreover, in test [2], the “pA2 value at MC4-R” value is given as 7.7. Besides, the “functional status at MC4-R” value in test [2] (cAMP assay) was “antagonist”. Moreover, in test [3], the “Inhibition at 1 μM (AgRP) MC4-R” value is 100%.

Regarding `CC(=O)N[C@H](Cc1ccc(C)cc1C)C(=O)N1C[C@@H](C)N(CCc2ccc3ccccc3c2)C[C@@H]1CCCNC(=N)N` [Example 26, N-{1(R)-(2,4-Dimethyl-benzyl)-2-[2(S)-(3-guanidino-propyl)-5(R)-methyl-4-(2-naphthalen-2-yl-ethyl)-piperazin-1-yl]-2-oxo-ethyl}-acetamide], the Ki stood at 43 nM in test [1]; 3 nM in test [3] (setting [5]); 0.18 nM in test [3] (read-out: Ki (nM) (AgRP) MC4-R); 1 nM in test [4] (setting [6]); 1 nM in test [4] (setting [7]). Also, the “functional status (pAg, Ag, Antag, Inactive)” value in test [2] (MC4-R, Table 1) is “Antag (“Antag” means antagonist)”. The “intrinsic activity at MC4-R” value in test [2] was “no intrinsic activity”. Besides, in test [2], the “pA2 value at MC4-R” value came to 8.3. Besides, the “functional status at MC4-R” value in test [2] (cAMP assay) was “antagonist”. Besides, the “Inhibition at 1 μM (AgRP) MC4-R” value in test [3] worked out at 100%.

Broadly, the EC50 is the concentration giving half of the maximal effect. Regarding `Cc1ccc(C[C@@H](N)C(=O)N2C[C@@H](C)N(CCc3ccc4ccccc4c3)C[C@@H]2CCCNC(=N)N)c(C)c1` [Example 28, N-{3-[1-[2(R)-Amino-3-(2,4-dimethyl-phenyl)-propionyl]-5(R)-methyl-4-(2-naphthalen-2-yl-ethyl)-piperazin-2(S)-yl]-propyl}-guanidine], the Ki in test [1] came to 665 nM; in test [3] (setting [5]) it was 3 nM; in test [3] (read-out: Ki (nM) (AgRP) MC4-R) it was 3 nM. In test [2] (MC4-R, Table 1), the “functional status (pAg, Ag, Antag, Inactive)” value was “pAg (“pAg” means partial agonist)”. Also, the EC50 in test [2] (MC4-R, Table 1, read-out: EC50) stood at 390 nM; in test [2] (cAMP assay, read-out: EC50 (nM) at MC4-R), 321 nM. Besides, the “intrinsic activity at MC4-R” value in test [2] is 0.16 and 0.2. Also, in test [3], the “Inhibition at 1 μM (AgRP) MC4-R” value is reported as 100%. Also, the “attenuation of binding of α-MSH and AgRP to MC4-R” value in test [4] (both ligands (NDP-α-MSH and AgRP), summary) is “attenuate the binding of both α-MSH and AgRP to MC4-R”.
